Data as given in patent US20230000842A1, “METHODS OF TREATING CARTILAGE DISORDERS THROUGH INHIBITION OF CLK AND DYRK” (SAMUMED, LLC, priority 2019, published 2023).

How the values were obtained:
[1] = test system: Wnt pathway activity (SW480 colon carcinoma cells stably expressing the Sp5-Luc reporter); assay: Wnt pathway activity screening assay (Sp5-Luc reporter gene assay); settings: Homo sapiens, SW480, Table 4; SW480 cells stably expressing Sp5-Luc reporter, 10-point dose-response from 10 μM, 36 to 48 hours
[2] = target: CLK3 kinase (Homo sapiens, UniProt P49761); assay: CLK3 kinase activity assay (Z-lyte FRET); format: biochemical; settings: Z-lyte Ser/Thr 18 peptide, 156 μM ATP, 1 h at room temperature;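 further: kinase activity read as coumarin/fluorescein emission ratio by FRET, unphosphorylated peptide as 0% and phosphorylated peptide as 100% control, values from non-linear regression of dose-response curves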
Protocol: This is a non-radioactive assay using fluorescence resonance energy transfer (FRET) between coumarin and fluorescein to detect kinase activity which is represented as a ratio of coumarin emission/fluorescein emission.
The mixture was allowed to incubate with the representative compounds for one hour at room temperature. All reactions were performed in duplicate. Unphosphorylated (“0% Control”) and phosphorylated (“100% control”) forms of Ser/Thr 18 served as control reactions. Additionally, an 11-point dose-response curve of Staurosporine (1 μM top) was run to serve as a positive compound control.
After incubation, Development Reagent A was diluted in Development Buffer then added to the reaction and allowed to further incubate for one hour at room temperature.
Dose-response curves were generated and inhibitory concentration (IC50) values were calculated using non-linear regression curve fit in the Dotmatics' Studies Software (Bishops Stortford, UK).

[3] = test system: primary human mesenchymal stem cells (hMSCs); assay: Chondrogenesis screening using primary human mesenchymal stem cells; format: cell-based; settings: Homo sapiens, Mesenchymal stem cells, hMSC chondrogenesis; for Emax: maximum activity relative to TGF-β3 (10 ng/mL) positive control, read-out: Max. Activity as % TGF-β3 activity; for EC50: concentration required to induce 50% levels of chondrogenesis with TGF-β3 as positive control, read-out: Conc (nM) of 50% TGF-β3 activity
How it was run: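 Primary hMSCs at passage 3–6 were treated across compound concentrations, with TGF-β3 as positive control. Chondrogenic nodule area per well was normalized to 3 DMSO wells on the same plate (fold over DMSO, 2–3 replicates). EC50, maximum activity and the dose reaching it were derived.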

[4] = target: CLK2 kinase (Homo sapiens, UniProt P49760); assay: CLK2 kinase activity assay (Z-lyte FRET); format: biochemical; settings: Z-lyte Ser/Thr 6 peptide, 60 μM ATP, 1 h at room temperature;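 further: FRET read-out as coumarin to fluorescein emission ratio, unphosphorylated peptide as 0% and phosphorylated peptide as 100% controls, duplicate reactions, non-linear regression fit of dose-response curves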
Sequence of CLK2 kinase (P49760 whole entry): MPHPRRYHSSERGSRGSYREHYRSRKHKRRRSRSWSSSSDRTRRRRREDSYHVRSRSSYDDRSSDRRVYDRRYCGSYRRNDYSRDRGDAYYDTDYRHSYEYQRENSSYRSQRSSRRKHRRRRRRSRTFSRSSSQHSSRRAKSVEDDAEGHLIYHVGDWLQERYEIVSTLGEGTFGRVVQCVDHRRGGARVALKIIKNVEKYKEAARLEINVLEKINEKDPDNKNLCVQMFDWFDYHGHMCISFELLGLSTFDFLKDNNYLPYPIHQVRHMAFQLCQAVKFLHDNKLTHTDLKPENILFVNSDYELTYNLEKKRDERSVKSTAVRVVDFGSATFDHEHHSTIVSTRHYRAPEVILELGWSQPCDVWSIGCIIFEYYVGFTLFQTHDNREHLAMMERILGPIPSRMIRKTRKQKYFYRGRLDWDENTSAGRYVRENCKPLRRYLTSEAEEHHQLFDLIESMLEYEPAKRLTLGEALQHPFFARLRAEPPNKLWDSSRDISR

Sequence of CLK3 kinase (P49761 whole entry): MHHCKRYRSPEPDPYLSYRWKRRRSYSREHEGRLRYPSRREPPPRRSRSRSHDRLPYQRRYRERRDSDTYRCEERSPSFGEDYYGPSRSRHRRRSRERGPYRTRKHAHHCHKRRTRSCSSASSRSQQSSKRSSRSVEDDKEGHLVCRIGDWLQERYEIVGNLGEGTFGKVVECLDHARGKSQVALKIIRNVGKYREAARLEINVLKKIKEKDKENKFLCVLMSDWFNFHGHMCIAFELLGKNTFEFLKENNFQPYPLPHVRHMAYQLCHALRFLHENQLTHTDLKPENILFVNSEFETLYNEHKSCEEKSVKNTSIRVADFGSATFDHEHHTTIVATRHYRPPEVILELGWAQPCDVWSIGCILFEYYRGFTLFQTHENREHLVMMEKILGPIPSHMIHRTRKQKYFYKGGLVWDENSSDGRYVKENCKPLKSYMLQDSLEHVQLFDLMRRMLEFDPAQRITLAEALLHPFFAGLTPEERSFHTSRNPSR

Row | EC50 [1] [nM] | EC50 [2] [nM] | EC50 [4] [nM] | EC50 [3] [nM] | SMILES | Emax [3] [%]
1 | 40 | 15 | 1 |  | c1cncc(-c2ccc3[nH]nc(-c4cc5cnccc5[nH]4)c3c2)c1 [compound 410] | 342
2 | 1060 | 351 | 5 |  | c1cncc(-c2cnc3[nH]nc(-c4cc5cccnc5[nH]4)c3c2)c1 [compound 411] | 11
3 | 133 | 88 | 2 | 30 | c1cncc(-c2cc3c(-c4cc5cnccc5[nH]4)n[nH]c3cn2)c1 [compound 412] | 62
4 | > 10000 | 5490 | 4 |  | c1cncc(-c2cc3c(-c4cc5cccnc5[nH]4)n[nH]c3cn2)c1 [compound 413] | 27.6
5 | > 10000 | 1360 | 3 | 10 | c1cncc(-c2ccc3[nH]nc(-c4cc5cccnc5[nH]4)c3n2)c1 [compound 414] | 65.9
6 | 191 | 31 | 1 |  | Cc1ccncc1-c1ccc2[nH]nc(-c3cc4ccncc4[nH]3)c2c1 [compound 415] | 161
7 | 389 | 61 | 3 | 10 | Cc1ccncc1-c1cc2c(-c3cc4cnccc4[nH]3)n[nH]c2cn1 [compound 416] | 61.4
8 | 102 | 73 | 3 |  | Nc1cncc(-c2ccc3[nH]nc(-c4cc5cccnc5[nH]4)c3c2)c1 [compound 417] | 35.5
9 | 960 | 41 | 2 |  | CCC(=O)Nc1cncc(-c2cnc3[nH]nc(-c4cc5cnccc5[nH]4)c3c2)c1 [compound 418] | 16.9
10 | 399 | 16 | 1 | 30 | CC(C)C(=O)Nc1cncc(-c2cc3c(-c4cc5cnccc5[nH]4)n[nH]c3cn2)c1 [compound 419] | 61.2
11 | 324 | 344 | 11 |  | CCCCC(=O)Nc1cncc(-c2ccc3[nH]nc(-c4cc5cccnc5[nH]4)c3c2)c1 [compound 420] | 34.1
12 | 1470 | 83 | 3 |  | CCCCC(=O)Nc1cncc(-c2cnc3[nH]nc(-c4cc5cnccc5[nH]4)c3c2)c1 [compound 421] | 30.8
13 | 3570 | 54 | 3 |  | CCCCC(=O)Nc1cncc(-c2cc3c(-c4cc5cnccc5[nH]4)n[nH]c3cn2)c1 [compound 422] | 49.9
14 | > 10000 | 6210 | 21 |  | CC(C)CC(=O)Nc1cncc(-c2cc3c(-c4cc5cccnc5[nH]4)n[nH]c3cn2)c1 [compound 423] | 40.4
15 | 605 | 47 | 2 |  | CC(C)(C)CC(=O)Nc1cncc(-c2cnc3[nH]nc(-c4cc5cnccc5[nH]4)c3c2)c1 [compound 424] | 7.07
16 | 1890 | 56 | 3 | 10 | CC(C)(C)CC(=O)Nc1cncc(-c2cc3c(-c4cc5cnccc5[nH]4)n[nH]c3cn2)c1 [compound 425] | 58.8
17 | 1540 | 88 | 5 | 30 | O=C(Nc1cncc(-c2cc3c(-c4cc5cnccc5[nH]4)n[nH]c3cn2)c1)C1CC1 [compound 426] | 58.5
18 | > 10000 | 9840 | 9 |  | O=C(Nc1cncc(-c2cc3c(-c4cc5cccnc5[nH]4)n[nH]c3cn2)c1)C1CC1 [compound 427] | 17.7
19 | 75 | 19 | 2 |  | O=C(Nc1cncc(-c2ccc3[nH]nc(-c4cc5cnccc5[nH]4)c3c2)c1)C1CCC1 [compound 428] | 213
20 | 271 | 365 | 9 |  | O=C(Nc1cncc(-c2ccc3[nH]nc(-c4cc5cccnc5[nH]4)c3c2)c1)C1CCCC1 [compound 429] | 30.2
21 | 2630 | 147 | 7 | 30 | O=C(Nc1cncc(-c2ccc3[nH]nc(-c4cc5ccncc5[nH]4)c3n2)c1)C1CCCC1 [compound 430] | 50.3
22 | 1260 | 2970 | 17 |  | O=C(Nc1cncc(-c2cnc3[nH]nc(-c4cc5cccnc5[nH]4)c3c2)c1)C1CCCCC1 [compound 432] | 28.5

Row | EC50 [1] [nM] | EC50 [2] [nM] | EC50 [4] [nM] | EC50 [3] [nM] | SMILES | Emax [3] [%]
23 | 1620 | 62 | 3 | 30 | O=C(Nc1cncc(-c2cc3c(-c4cc5cnccc5[nH]4)n[nH]c3cn2)c1)C1CCCCC1 [compound 433] | 59.4
24 | 1760 | 189 | 5 |  | O=C(Cc1ccccc1)Nc1cncc(-c2ccc3[nH]nc(-c4cc5cnccc5[nH]4)c3c2)c1 [compound 434] | 119
25 | > 10000 | 46 | 2 | 30 | O=C(Nc1cncc(-c2cnc3[nH]nc(-c4cc5cnccc5[nH]4)c3c2)c1)c1ccccc1 [compound 435] | 69.9
26 | 580 | 62 | 2 | 10 | O=C(Nc1cncc(-c2cc3c(-c4cc5cnccc5[nH]4)n[nH]c3cn2)c1)c1ccccc1 [compound 437] | 152
27 | 395 | 269 | 4 | 10 | CCNCc1cncc(-c2ccc3[nH]nc(-c4cc5ccccc5[nH]4)c3c2)c1 [compound 438] | 532
28 | 1040 | 49 | 2 |  | CCNCc1cncc(-c2ccc3[nH]nc(-c4cc5cnccc5[nH]4)c3c2)c1 [compound 439] | 317
29 | 3760 | 562 | 3 | 10 | CCNCc1cncc(-c2ccc3[nH]nc(-c4cc5cccnc5[nH]4)c3n2)c1 [compound 440] | 79.9
30 | 3060 | 538 | 5 | 300 | CN(C)c1cncc(-c2cc3c(-c4cc5cnccc5[nH]4)n[nH]c3cn2)c1 [compound 441] | 101
31 | 1140 | 101 | 3 | 30 | CN(C)Cc1cncc(-c2ccc3[nH]nc(-c4cc5cnccc5[nH]4)c3n2)c1 [compound 442] | 119
32 | > 10000 | 566 | 7 |  | CN(C)Cc1cncc(-c2ccc3[nH]nc(-c4cc5cccnc5[nH]4)c3n2)c1 [compound 443] | 37
33 | 1410 | 362 | 9 | 10 | c1ccc2[nH]c(-c3n[nH]c4ncc(-c5cncc(CN6CCCC6)c5)cc34)cc2c1 [compound 444] | 97.6
34 | 1350 | 203 | 5 |  | FC1(F)CCN(Cc2cncc(-c3cc4c(-c5cc6cccnc6[nH]5)n[nH]c4cn3)c2)C1 [compound 445] | 45.3
35 | 45 | 23 | 1 | 300 | FC1(F)CCN(Cc2cncc(-c3ccc4[nH]nc(-c5cc6cnccc6[nH]5)c4n3)c2)C1 [compound 446] | 134
36 | 104 | 37 | 2 | 100 | FC1(F)CCN(Cc2cncc(-c3ccc4[nH]nc(-c5cc6cccnc6[nH]5)c4n3)c2)C1 [compound 447] | 134
37 | 685 | 28 | 3 |  | c1cc2[nH]c(-c3n[nH]c4ccc(-c5cncc(CN6CCCCC6)c5)cc34)cc2cn1 [compound 448] | 122
38 | 1670 | 85 | 3 |  | c1cnc2[nH]c(-c3n[nH]c4ccc(-c5cncc(CN6CCCCC6)c5)cc34)cc2c1 [compound 450] | 50.8
39 | 1540 | 53 | 5 |  | c1cc2[nH]c(-c3n[nH]c4ncc(-c5cncc(CN6CCCCC6)c5)cc34)cc2cn1 [compound 451] | 39.7
40 | 1850 | 68 | 2 |  | c1cc2cc(-c3n[nH]c4ccc(-c5cncc(OCCN6CCCC6)c5)cc34)[nH]c2cn1 [compound 452] | 44.6
41 | 3300 | 246 | 2 |  | c1cnc2[nH]c(-c3n[nH]c4ccc(-c5cncc(OCCN6CCCC6)c5)cc34)cc2c1 [compound 453] | 42.7
42 | 604 | 110 | 5 |  | Nc1cncc(-c2ccc3[nH]nc(-c4cc5c(N6CCCCC6)ccnc5[nH]4)c3c2)c1 [compound 455] | 130
43 | 2960 | 94 | 2 | 30 | Nc1cncc(-c2cc3c(-c4cc5c(N6CCCCC6)cncc5[nH]4)n[nH]c3cn2)c1 [compound 456] | 93.5
